The record followed here is patent US8846951B2 (AbbVie Inc., priority 2009, dated 2014).

pEC50: −log10 of the molar value. Where two headings read alike, the source gives them in different places.

The target of experiment [1] is T1, 5HT2B receptors (Homo sapiens, UniProt P41595).
T1 construct: expressed in transfected cells; host or cells: CHO-K1 cells
The experiment is described as follows: Human 5-HT2B functional high throughput screening assay in CHO-K1 cells (calcium flux). In kind it is cell-based. Particulars: for pEC50: CHO-K1 cells, calcium flux; call rule not given here. The procedure:
(§1) (iii) Human 5-HT2C and 5-HT2B Functional High Throughput Screening Assays in CHO-K1 Cells
(§2) CHO-K1 cells over-expressing 5HT2C or 5HT2B receptors were grown in 1272 cm^2 flasks to 70-80% confluency in UltraCHO media (Lonza, Walkersville, Md.) supplemented with 1% dialyzed fetal bovine serum (FBS), 250 μg/mL zeocin, 100 U/mL penicillin and 100 μg/mL streptomycin, and 400 μg/mL geneticin. The cells were dissociated from the flasks using 0.05% trypsin, resuspended in Recovery™ cell culture freezing medium (Invitrogen, Carlsbad, Calif.) and stored in liquid nitrogen until use. The calcium flux experiments were done using frozen cells. The cells were diluted in media containing 1% dialyzed FBS and 100 U/mL penicillin and 100 μg/mL streptomycin and plated into 384-well poly-D-Lysine coated plates (15,000 cells/well). Then the plates were incubated overnight in a cell incubator at 37° C., 5% CO2. On the next day, the growth media was replaced with media without FBS and further incubated overnight. On day three, the changes in intracellular Ca^2+ were determined using calcium sensitive fluorescent dye, Ca4 (MDS Analytical Technologies, Sunnyvale, Calif.) by loading 15 μL of diluted dye in Hank's Balanced Salt Solution and 20 mM Hepes buffer (pH 7.4) with final concentration of 2.5 mM probenecid into the cells containing media. Then the cells were incubated at room temperature for 60 minutes in dark.
(§3) After incubation, the cell plates were transferred to FLIPR™ (MDS) and their fluorescence measurements were read at an excitation wavelength of 480 nm and an emission wavelength of 530 nm at 25° C. The baseline fluorescence was measured for the first 10 seconds and then 15 μL of 4× concentration of serotonin/test compound was added to the cells. The fluorescence intensity was captured every second for the first 1 minute followed by every 5 seconds for an additional 2 minutes. The increase in fluorescent response by a test compound was normalized to the response of serotonin and used to determine agonist activity. The concentration response of compounds was done from a starting concentration of 10 μM, 1:10 dilution across 6 wells with a final dimethyl sulfoxide concentration of 0.2% and was fitted using a 4-parameter logistic equation. The concentration at which a compound exerts half its maximal effect was named as ‘effective concentration 50’ or ‘EC50’. Emax is the maximum functional response or efficacy expressed as a percentage relative to the effect of serotonin.
For orientation: Calcium flux is commonly read through the fluorescence of an indicator in the cells.

Experiment [2] has as its target T2, 5HT2C receptors (Homo sapiens, UniProt P28335).
T2 sequence (P28335 33-458): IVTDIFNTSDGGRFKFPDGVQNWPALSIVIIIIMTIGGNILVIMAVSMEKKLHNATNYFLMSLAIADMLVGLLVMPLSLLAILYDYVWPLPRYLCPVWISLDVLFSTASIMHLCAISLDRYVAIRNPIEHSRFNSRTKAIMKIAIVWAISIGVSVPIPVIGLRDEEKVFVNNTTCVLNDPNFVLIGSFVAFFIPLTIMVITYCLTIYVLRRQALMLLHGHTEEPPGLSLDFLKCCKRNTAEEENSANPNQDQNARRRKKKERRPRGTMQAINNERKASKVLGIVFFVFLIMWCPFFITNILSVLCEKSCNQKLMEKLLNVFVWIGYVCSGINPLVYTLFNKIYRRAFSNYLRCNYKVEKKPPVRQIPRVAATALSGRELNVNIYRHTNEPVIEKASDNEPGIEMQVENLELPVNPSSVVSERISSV
Nature of the experiment: Human 5-HT2C functional high throughput screening assay in CHO-K1 cells (calcium flux). The format is cell-based. More on the design: expressed in transfected cells; host or cells: CHO-K1 cells. Conditions: for pEC50: CHO-K1 cells, calcium flux; for Emax: CHO-K1, 5-HT2C, maximum functional response as percentage relative to the effect of serotonin. How it is done: as §1, §2, §3

Where [3] appears, read: 5-HT2B agonist activity, read-out: EC50.
Where [4] appears, read: 5-HT2B, maximum functional response as percentage relative to the effect of serotonin.
Setting [5] is: 5-HT2C agonist activity, read-out: EC50.

T1 sequence (P41595 whole entry): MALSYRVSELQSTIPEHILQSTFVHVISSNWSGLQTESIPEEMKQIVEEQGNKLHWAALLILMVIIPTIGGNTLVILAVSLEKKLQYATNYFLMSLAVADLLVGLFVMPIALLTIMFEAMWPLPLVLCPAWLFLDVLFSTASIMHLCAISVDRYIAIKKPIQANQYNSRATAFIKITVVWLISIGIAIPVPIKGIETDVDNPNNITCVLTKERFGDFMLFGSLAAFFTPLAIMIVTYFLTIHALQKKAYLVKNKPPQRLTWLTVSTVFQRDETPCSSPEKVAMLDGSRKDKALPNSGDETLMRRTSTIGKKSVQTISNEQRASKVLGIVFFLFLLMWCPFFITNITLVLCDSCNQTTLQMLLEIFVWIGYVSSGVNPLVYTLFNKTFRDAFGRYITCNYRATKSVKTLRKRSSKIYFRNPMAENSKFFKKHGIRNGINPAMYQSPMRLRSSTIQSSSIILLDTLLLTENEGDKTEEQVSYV

Regarding `CN1C[C@H]2CNC(=O)c3cc(C=Cc4ccccc4)ccc3[C@@H]2C1` (relative stereo) [Example 85, Trans-2-methyl-8-styryl-1,2,3,3a,4,5-hexahydrobenzo[e]pyrrolo[3,4-c]azepin-6(10bH)-one], the figures for the negative-log EC50 (pEC50) in experiment [1] (setting [3]) and in experiment [2] (setting [5]) were less than 5.00 and 6.92, respectively. Further, the maximal response (Emax) result in experiment [1] (setting [4]) was “inactive”; in experiment [2] (read-out: Emax), 100%.

As for `CN1C[C@H]2CNC(=O)c3cc(CCc4ccccc4)ccc3[C@@H]2C1` (relative stereo) [Example 87, Trans-2-methyl-8-phenethyl-1,2,3,3a,4,5-hexahydrobenzo[e]pyrrolo[3,4-c]azepin-6(10bH)-one], the pEC50 in experiment [1] (setting [3]) is less than 5.00; in experiment [2] (setting [5]) it was 7.42. The maximum response (Emax) result was “inactive” in experiment [1] (setting [4]) and 90% in experiment [2] (read-out: Emax).

Take `COC(=O)c1ccc2c(c1)C(=O)NC[C@@H]1CN(C)C[C@@H]21` (relative stereo) [Example 88, Trans-methyl 2-methyl-6-oxo-1,2,3,3a,4,5,6,10b-octahydrobenzo[e]pyrrolo[3,4-c]azepine-8-carboxylate]: the results for the pEC50 in experiment [1] (setting [3]) and in experiment [2] (setting [5]) were less than 5.00 and 6.30, respectively. Further, the maximal effect (Emax) result in experiment [1] (setting [4]) was “inactive”; in experiment [2] (read-out: Emax) it was greater than 120%.

As to `CN1C[C@H]2CNC(=O)c3cccc(F)c3[C@@H]2C1` (relative stereo) [Example 89, Trans-10-fluoro-2-methyl-1,2,3,3a,4,5-hexahydrobenzo[e]pyrrolo[3,4-c]azepin-6(10bH)-one], the Emax was 33% in experiment [1] (CHO-K1) and greater than 120% in experiment [2]. In addition, the negative-log EC50 (pEC50) in experiment [1] (EC50, 5-HT2B agonist activity) is 6.25; in experiment [2] (EC50, 5-HT2C agonist activity), 7.94.

As to `CN1C[C@H]2CNC(=O)c3c(F)cccc3[C@@H]2C1` (relative stereo) [Example 92, Trans-7-fluoro-2-methyl-1,2,3,3a,4,5-hexahydrobenzo[e]pyrrolo[3,4-c]azepin-6(10bH)-one], the Emax in experiment [1] (CHO-K1) is 34%; in experiment [2], greater than 120%. Besides, the pEC50 in experiment [1] (EC50, 5-HT2B agonist activity) is 5.87; in experiment [2] (EC50, 5-HT2C agonist activity) it was 7.25.

Turning to `O=C1NC[C@@H]2CN(Cc3ccccc3)C[C@H]2c2c1sc1ccccc21` (relative stereo) [Example 97, Trans-2-benzyl-2,3,3a,4,5,11c-hexahydro[1]benzothieno[2,3-c]pyrrolo[3,4-e]azepin-6(1H)-one], the negative-log EC50 (pEC50) in experiment [1] (setting [3]) was 5.40; in experiment [2] (setting [5]) it was 6.00. For the same molecule, the Emax in experiment [1] (CHO-K1, 5-HT2B, maximum functional response as percentage relative to the effect of serotonin, read-out: Emax) came to 40%; in experiment [2] (read-out: Emax) it was 110%.

With `COc1cc(OC)c2c(c1)C(=O)NC[C@@H]1CN(Cc3ccccc3)C[C@@H]21` (relative stereo) [Example 98, Trans-2-benzyl-8,10-dimethoxy-1,2,3,3a,4,5-hexahydrobenzo[c]pyrrolo[3,4-e]azepin-6(10bH)-one], the figures for the pEC50 in experiment [1] (setting [3]) and in experiment [2] (setting [5]) were less than 5.00 and 8.00, respectively. For the same molecule, the maximal response (Emax) entry is “inactive” in experiment [1] (setting [4]) and greater than 120% in experiment [2] (read-out: Emax).

For `O=C1NC[C@@H]2CNC[C@H]2c2c1sc1ccccc21` (relative stereo) [Example 99, Trans-2,3,3a,4,5,11c-hexahydro[1]benzothieno[2,3-e]pyrrolo[3,4-e]azepin-6(1H)-one], the values for the Emax in experiment [1] (CHO-K1) and in experiment [2] were 90% and greater than 120%, respectively. Moreover, the negative-log EC50 (pEC50) in experiment [1] (EC50, 5-HT2B agonist activity) is 6.00; in experiment [2] (EC50, 5-HT2C agonist activity), 7.70.

For `COc1cc(OC)c2c(c1)C(=O)NC[C@@H]1CNC[C@@H]21` (relative stereo) [Example 100, Trans-8,10-dimethoxy-1,2,3,3a,4,5-hexahydrobenzo[c]pyrrolo[3,4-e]azepin-6(10bH)-one], the Emax in experiment [1] (CHO-K1) was 70%; in experiment [2] it was greater than 120%. For the same molecule, the negative-log EC50 (pEC50) in experiment [1] (EC50, 5-HT2B agonist activity) is 6.05; in experiment [2] (EC50, 5-HT2C agonist activity), 8.52.

Consider `O=C1NC[C@@H]2CN(Cc3ccccc3)C[C@H]2c2sccc21` (relative stereo) [Example 101, Trans-8-benzyl-6,6a,7,8,9,9a-hexahydropyrrolo[3,4-e]thieno[3,2-c]azepin-4(5H)-one], for which the pEC50 in experiment [1] (setting [3]) was less than 5.00; in experiment [2] (setting [5]) it was 6.40. The results for the maximal effect (Emax) result in experiment [1] (setting [4]) and in experiment [2] (read-out: Emax) were “inactive” and greater than 120%, respectively.

Take `O=C1NC[C@@H]2CN(Cc3ccccc3)C[C@H]2c2cccc(OC(F)(F)F)c21` (relative stereo) [Example 102, Trans-2-benzyl-7-(trifluoromethoxy)-1,2,3,3a,4,5-hexahydrobenzo[c]pyrrolo[3,4-e]azepin-6(10bH)-one]: the values for the pEC50 in experiment [1] (setting [3]) and in experiment [2] (setting [5]) were less than 5.00 and 7.00, respectively. Also, the maximal effect (Emax) entry was “inactive” in experiment [1] (setting [4]) and greater than 120% in experiment [2] (read-out: Emax).

For the molecule `O=C1NC[C@@H]2CNC[C@H]2c2cccc(OC(F)(F)F)c21` (relative stereo) [Example 103, Trans-7-(trifluoromethoxy)-1,2,3,3a,4,5-hexahydrobenzo[c]pyrrolo[3,4-e]azepin-6(10bH)-one], the figures for the Emax in experiment [1] (CHO-K1) and in experiment [2] were 110% and greater than 120%, respectively. For the same molecule, the pEC50 in experiment [1] (EC50, 5-HT2B agonist activity) was 7.10; in experiment [2] (EC50, 5-HT2C agonist activity), 9.15.

For `O=C1NC[C@@H]2CNC[C@H]2c2sccc21` (relative stereo) [Example 104, Trans-6,6a,7,8,9,9a-hexahydropyrrolo[3,4-e]thieno[3,2-c]azepin-4(5H)-one], the negative-log EC50 (pEC50) is less than 5.00 in experiment [1] (setting [3]) and 6.05 in experiment [2] (setting [5]). The Emax entry was “inactive” in experiment [1] (setting [4]) and greater than 120% in experiment [2].

With `Fc1ccc2c(c1)OCC[C@H]1CN(Cc3ccccc3)C[C@H]21` (relative stereo) [Example 107, Trans-2-benzyl-8-fluoro-2,3,3a,4,5,10b-hexahydro-1H-[1]benzoxepino[4,5-c]pyrrole], the results for the Emax in experiment [1] (CHO-K1) and in experiment [2] were 15% and 110%, respectively. Also, the negative logarithm of the EC50 (pEC50) was 6.15 in experiment [1] (EC50, 5-HT2B agonist activity) and 7.05 in experiment [2] (EC50, 5-HT2C agonist activity).

Regarding `c1ccc(-c2ccc3c(c2)OCC[C@H]2CNC[C@H]32)cc1` (relative stereo) [Example 108, Trans-8-phenyl-2,3,3a,4,5,10b-hexahydro-1H-[1]benzoxepino[4,5-c]pyrrole], the negative-log EC50 (pEC50) in experiment [1] (setting [3]) was less than 5.00; in experiment [2] (setting [5]), 6.70. Also, the Emax entry in experiment [1] (setting [4]) was “inactive”; in experiment [2] (read-out: Emax), 110%.

Take `Fc1ccc2c(c1)OCC[C@H]1CNC[C@H]21` (relative stereo) [Example 109, Trans-8-fluoro-2,3,3a,4,5,10b-hexahydro-1H-[1]benzoxepino[4,5-c]pyrrole]: the values for the Emax in experiment [1] (CHO-K1) and in experiment [2] were 55% and greater than 120%, respectively. For the same molecule, the negative-log EC50 (pEC50) in experiment [1] (EC50, 5-HT2B agonist activity) is 6.52; in experiment [2] (EC50, 5-HT2C agonist activity), 7.40.

Take `CN1C[C@H]2CNC(=O)c3c(OC(F)(F)F)cccc3[C@@H]2C1` (relative stereo) [Example 110, Trans-2-methyl-7-(trifluoromethoxy)-1,2,3,3a,4,5-hexahydrobenzo[c]pyrrolo[3,4-e]azepin-6(10bH)-one]: the Emax was 15% in experiment [1] (CHO-K1) and greater than 120% in experiment [2]. Besides, in experiment [1] (EC50, 5-HT2B agonist activity), the negative-log EC50 (pEC50) is 6.05.

For `O=S1(=O)NC[C@@H]2CNC[C@H]2c2ccccc21` (relative stereo) [Example 111, Trans-2,3,3a,4,5,10b-hexahydro-1H-pyrrolo[3,4-d][1,2]benzothiazepine 6,6-dioxide], the pEC50 was less than 5.00 in experiment [1] (setting [3]) and 5.22 in experiment [2] (setting [5]). In addition, the Emax in experiment [1] (CHO-K1) was 20%; in experiment [2] it was 100%.

As a reminder, the pEC50 is the negative decadic logarithm of the EC50, by convention in mol/L. As usually defined, the Emax is the maximal effect, on the per cent scale that the assay sets.
